Assay results taken from doi:10.1101/2024.08.25.609621 (bioRxiv, 2024).
Converted amounts (≈) assume the structure as drawn. “And” between values parts separate entries of the source, which are not always exact repeats. Equal values may be shown once. Read-outs that look alike come from different tables or passages of the source.

Key:
[1] = biological target: T1, human macrodomain Targ1 (Homo sapiens, UniProt Q9Y530); test: HTRF peptide displacement assay, Targ1; type: binding
T1 sequence (Q9Y530 with tags, fused parts or gaps): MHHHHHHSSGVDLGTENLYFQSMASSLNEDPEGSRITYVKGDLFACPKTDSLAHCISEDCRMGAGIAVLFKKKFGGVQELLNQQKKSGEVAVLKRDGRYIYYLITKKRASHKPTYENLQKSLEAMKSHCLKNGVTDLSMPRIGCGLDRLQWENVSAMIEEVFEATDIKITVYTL

[2] = Microsomal stability; type: in vitro ADME, mouse; conditions: for half-life at 1 µM / microsomal CLint at 1 µM: pH 7.4
Experimental: The assay was carried out in 96-well plates at 37°C. Reaction mixtures (25 μl) contained a final concentration of 1 μM compound, 0.5 mg/ml liver microsomes protein, and 1 mM NADPH and/or 1 mM UDPGA (with alamethicin) in 100 mM potassium phosphate (pH 7.4) with 3 mM MgCl2. After 0, 15, 30, and 60 minutes, 150 μl of quench solution (100% acetonitrile with 0.1% formic acid) with internal standard was transferred to each well. Reactions containing the same components except the NADPH were prepared as the negative control. Plates were sealed, vortexed, and centrifuged at 4°C for 15 minutes at 4000 rpm.
The extent of metabolism was calculated as the disappearance of compounds, compared to the 0-min time incubation.

[3] = Kinetic solubility; conditions: pH 7.4, aqueous buffer, kinetic from dmso stock
[4] = in vitro; conditions: human; for Papp A→B at 1 h / Papp B→A at 1 h: Caco-2
Experimental: (§1) Caco-2 cell plates were obtained commercially and were maintained for 21 days at 37°C with 5% CO2. Cells were washed with Hank’s Balanced Salt Solution (HBSS) with 5 mM HEPES for 30 minutes before starting the experiment. Test compound solutions are prepared by diluting DMSO stock into HBSS buffer, resulting in a final DMSO concentration of 0.1%. Prior to the assay, cell monolayer integrity was verified by […] electrical resistance (TEER) to ensure that wells have resistance above the acceptance cut-off (1 kΩ). Transport experiments were initiated by adding test compounds to the apical (75 μl) or basal (250 μl) side. Transport plates were incubated at 37°C in a humidified incubator with 5% CO2. Samples were taken from the donor and acceptor compartments after one hour and analyzed by liquid chromatography with tandem mass spectrometry (LC/MS/MS) using an AB Sciex API 4000 instrument, coupled to a Shimadzu LC-20AD LC Pump system. Samples were separated using a Waters Atlantis T3 dC18 reverse phase HPLC column (20 mm × 2.1 mm) at a flow rate of 0.5 ml/min. The mobile phase consisted of 0.1% formic acid in acetonitrile (solvent A) and 0.1% formic acid in water (solvent B).
(§2) Apparent permeability (Papp) values were calculated using the following equation: Papp=(dQ/dt)/A/C0 where dQ/dt is the initial rate of compound transport across the cell monolayer, A is the surface area of the filter membrane, and C0 is the initial concentration of the test compound, calculated for each direction using a four-point calibration curve by LC/MS/MS.
(§3) Net flux ratio between the two directional transports was calculated by the following equation: Ratio=PappB-A/PappA-B where PappB-A and PappA-B represent the apparent permeability of compounds from the basal-to-apical and apical-to-basal side of the cellular monolayer, respectively. Recovery was calculated based on the compound concentration at the end of the experiment, compared to that at the beginning of the experiment, adjusted for volumes.

[5] = system: Caco-2 cells; test: in vitro
Experimental: as §1, §2, §3

[6] = biological target: T2, human macrodomain MacroD2 (Homo sapiens, UniProt A1Z1Q3); test: HTRF peptide displacement assay, MacroD2; type: binding
T2 sequence (A1Z1Q3 with tags, fused parts or gaps): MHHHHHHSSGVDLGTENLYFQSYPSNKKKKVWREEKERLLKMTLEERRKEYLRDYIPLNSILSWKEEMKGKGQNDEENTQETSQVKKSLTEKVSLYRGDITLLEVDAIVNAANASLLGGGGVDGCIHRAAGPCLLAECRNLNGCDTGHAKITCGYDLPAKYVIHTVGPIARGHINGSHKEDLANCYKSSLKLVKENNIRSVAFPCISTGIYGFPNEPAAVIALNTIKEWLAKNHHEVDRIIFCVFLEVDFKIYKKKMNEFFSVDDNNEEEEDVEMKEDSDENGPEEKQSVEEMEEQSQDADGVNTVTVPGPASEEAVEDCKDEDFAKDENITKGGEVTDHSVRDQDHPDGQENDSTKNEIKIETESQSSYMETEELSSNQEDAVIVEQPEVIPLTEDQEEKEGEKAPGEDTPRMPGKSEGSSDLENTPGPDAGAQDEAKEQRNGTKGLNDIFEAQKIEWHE

[7] = biological target: SARS-CoV-2 NSP3 macrodomain (Mac1) (Severe acute respiratory syndrome coronavirus 2, UniProt P0DTD1); test: biochemical; type: binding
[8] = biological target: SARS-CoV-2 NSP3 macrodomain (Mac1), P43 crystal form (Severe acute respiratory syndrome coronavirus 2, UniProt P0DTD1); type: binding
[9] = Caco-2, Caco-2 ratio B-A/A-B, net flux ratio
[10] = Caco-2, compound concentration 5
[11] = soak concentration 10 mM, DMSO background map

SMILES: Nc1ncnc2c1ncn2[C@@H]1O[C@H](COP(=O)(O)OP(=O)(O)OC[C@H]2O[C@@H](O)[C@H](O)[C@@H]2O)[C@@H](O)[C@H]1O.[Na].[Na] [ADP-ribose, reference compound]
- Hill slope ([1]; HTRF dose-response fit, Targ1): 1.5

SMILES: O=C(Nc1ccc(C(=O)N[C@H]2c3cccc(O)c3C[C@H]2C(=O)O)cc1)NC1CC1 [AVI-92, reference compound]
- CLint (mouse) (µl/min/mg protein), mean ([2]; mouse microsome stability): <11.6 µl/min/mg protein
- T1/2 (min), mean ([2]; mouse microsome stability): >120 min
- half-life at 1 µM ([2]; mouse, microsomes, 1 μM compound, 0.5 mg/ml microsomal protein, read-out: Mouse microsome T1/2): > 120 min
- microsomal CLint at 1 µM ([2]; mouse microsomes, read-out: CLint (mouse)): < 11.6 µL/min/mg
- solubility kinetic at […] [3]: 524 µM (≈ 207 µg/mL)
- Papp A→B at 1 h [4]: 0.04 ×10⁻⁶ cm/s
- Papp B→A at 1 h [4]: 1.7 ×10⁻⁶ cm/s
- efflux ratio at 1 h [4, 9]: 40.7
- efflux ratio at 1 h ([4]; Caco-2, Ratio (B-A/A-B), Caco-2, compound concentration 5): 42.5
- Recover Rate (%) [5, 10]: 91%

SMILES: O=C1CCCN1Nc1ncnc2[nH]c3cc(F)ccc3c12 [AVI-219, reference compound]
- microsomal CLint at 1 µM ([2]; liver microsomes, mouse microsome stability, read-out: CLint (mouse) (µl/min/mg protein), mean): 53.1 µL/min/mg
- half-life at 1 µM ([2]; liver microsomes, mouse microsome stability, read-out: T1/2 (min), mean): 26.1 min
- microsomal CLint at 1 µM ([2]; mouse, microsomes): 53.1 µL/min/mg
- solubility kinetic at […] ([3]; phosphate buffered saline): 127 µM (≈ 36.2 µg/mL)
- Papp A→B at 1 h [4]: 10.6 ×10⁻⁶ cm/s
- Papp B→A at 1 h [4]: 16.8 ×10⁻⁶ cm/s
- efflux ratio at 1 h [4, 9]: 1.6
- Recover Rate (%) [5, 10]: 98%

SMILES: CC(C)(O)[C@H]1CCCN1c1ncnc2[nH]ccc12 [AVI-607, 2-[(2R)-1-{7H-Pyrrolo[2,3-d]pyrimidin-4-yl}pyrrolidin-2-yl]propan-2-ol]
- IC50 ([6]; dose-response, read-out: Human MacroD2 HTRF assay: IC50): > 1000 µM
- binding to the human macrodomain MacroD2 ([6]; in words): none
- microsomal CLint at 1 µM ([2]; liver microsomes, mouse microsomes, read-out: CLint (mouse) (µl/min/mg protein), mean): 73 µL/min/mg
- half-life at 1 µM ([2]; mouse, microsomes): 19 min
- microsomal CLint at 1 µM ([2]; mouse, microsomes): 73 µL/min/mg
- solubility kinetic at […] ([3]; phosphate buffered saline): 518 µM (≈ 128 µg/mL)
- Hill slope ([7]; HTRF dose-response fit, Mac1): 1.5
- inhibition at 200 µM ([7]; Single dose, concentration 200 μM, read-out: SARS CoV-2 macrodomain HTRF assay: Average % competition): 100%
- SARS CoV-2 macrodomain HTRF assay: Hillslope ([7]; dose-response fit): 1.5
- inhibition at 200 µM ([7]; preliminary screen, compound at 200 μM, mean of 3-4 technical replicates, read-out: % competition in HTRF assay): 100%
- Papp A→B at 1 h [4]: 22 ×10⁻⁶ cm/s
- Papp B→A at 1 h [4]: 15.7 ×10⁻⁶ cm/s
- efflux ratio at 1 h [4, 9]: 0.7
- efflux ratio at 1 h ([4]; Caco-2, Ratio (B-A/A-B)): 0.71
- Recover Rate (%) ([5]; human, Caco-2, 1 h): 93%
- IC50 ([1]; dose-response, read-out: Human Targ1 HTRF assay: IC50): > 1000 µM
- binding to the human macrodomain Targ1 ([1]; in words): none
- 1-BDC ([8]; PanDDA background density correction): 0.44
- Pandda run, overall: Modeling comment ([8]; crystal soak, soak concentration 10 mM): High occupancy, use manual refinement
- Pandda run, overall: Hit ([8]; crystal soak, soak concentration 10 mM, TRUE = ligand hit): TRUE
- Total number of conformations ([8]; ligand conformations modeled in Mac1 crystal structure): 1
- 2*(1-BDC) (%) ([8]; occupancy estimate from PanDDA 1-BDC): 88%
- X-ray crystallography: Binding site ([8]; site where the ligand is bound in the X-ray crystal structure): Adenosine
- PanDDA run, DMSO background map: 1-BDC [8, 11]: 0.42 and 0.44
- PanDDA run, DMSO background map: Hit [8, 11]: TRUE
